Patent US7880010B2, “Crystalline forms of a dimethylphenyl compound” (Theravance, Inc., priority 2006, dated 2011)

What was measured:
bronchoconstriction = assay: Einthoven assay, duration of bronchoprotection; details: guinea pigs, 10 μg/mL
[1] = Differential scanning calorimetry, thermal stability; assay type: physicochemical; details: DSC, FIG. 5
Procedure: Differential scanning calorimetry (DSC) was performed using a TA Instruments Model Q-100 module with a Thermal Analyst controller. Data were collected and analyzed using TA Instruments Thermal Solutions software. A sample of about 1 mg was accurately weighed into an aluminum pan with lid. The sample was evaluated using a linear heating ramp of 5° C./min from ambient temperature to approximately 300° C. The DSC cell was purged with dry nitrogen during use. Representative DSC traces for samples of Form I, Form II and Form III of crystalline biphenyl-2-ylcarbamic acid 1-[2-(4-{[(R)-2-(3-formylamino-4-hydroxyphenyl)-2-hydroxyethylamino]methyl}-2,5-dimethylphenylcarbamoyl)ethyl]piperidin-4-yl ester are shown in FIGS. 4, 5 and 6, respectively.

[2] = Dynamic moisture sorption (DMS) assessment; assay type: physicochemical
Procedure: A dynamic moisture sorption (DMS) assessment (also known as a moisture sorption-desorption profile) was performed for a hand ground samples of Form I, Form II and Form III of crystalline biphenyl-2-ylcarbamic acid 1-[2-(4-{[(R)-2-(3-formylamino-4-hydroxyphenyl)-2-hydroxyethylamino]methyl}-2,5-dimethylphenylcarbamoyl)-ethyl]piperidin-4-yl ester using a VTI atmospheric microbalance, SGA-100 system (VTI Corp., Hialeah, Fla. 33016). A sample size of approximately 10 mg was used and the humidity was set at the ambient value at the start of the analysis. A typical DMS analysis consisted of three scans: ambient to 2% relative humidity (RH), 2% RH to 90% RH, 90% RH to 5% RH at a scan rate of 5% RH/step. The mass was measured every two minutes and the RH was changed to the next value (±5% RH) when the mass of the sample was stable to within 0.01% for 5 consecutive points. Representative DMS traces for Form I, Form II and Form III are shown in FIGS. 10, 11 and 12, respectively.

thermal stability [1]	hygroscopicity ([2]; DMS, 2% RH to 90% RH, reversible sorption/desorption profile)	weight gain ([2]; humidity range of 40% RH to 75% RH, DMS trace FIG. 11)	weight gain ([2]; humidity range of 40% relative humidity to 75% relative humidity)	deliquescence ([2]; moisture sorption/desorption, exposure to atmospheric moisture)	Structure (SMILES)	duration of significant bronchoprotection (bronchoconstriction)
–	–	–	–	–	C[N+]1(C)[C@@H]2C[C@@H](OC(=O)C(O)(c3cccs3)c3cccs3)C[C@H]1[C@@H]1O[C@@H]12 [tiotropium]	greater than 72 hours
excellent thermal stability	< 5%	about 0.3 weight %	less than 0.5%	not deliquescent	Cc1cc(NC(=O)CCN2CCC(OC(=O)Nc3ccccc3-c3ccccc3)CC2)c(C)cc1CNC[C@H](O)c1ccc(O)c(NC=O)c1 [Form II, Biphenyl-2-ylcarbamic acid 1-[2-(4-{[(R)-2-(3-Formylamino-4-hydroxyphenyl)-2-hydroxyethylamino]methyl}-2,5-dimethylphenylcarbamoyl)ethyl]piperidin-4-yl Ester]	–
